We go through 26 compounds from patent publication US20250304593A1 (Skyhawk Therapeutics, Inc., priority 2022, published 2025).

SMILES strings stand for the structures.

One assay concerns ATXN3-HiBiT protein. Nature of the assay: ATXN3 HiBiT assay (luminescence, Kelly-ATXN3-HiBiT cell line). The format is cell-based. The note with it: Kelly-ATXN3-HiBiT cells, read out 48 h after addition of compound. The source says:
To monitor ATXN3 protein levels by luminescence, a Kelly-ATXN3-HiBiT cell line with homozygous knock-in of HiBiT at the C-terminus of the endogenous ATXN3 gene was used (knock-in of the HiBiT-tag coding sequence SEQ ID NO. 14: 5′[…]3′ into exon 11 of ATXN3 -position 1114 of ATXN3 RefSeq NM_004993.6). Manipulations of the Kelly-ATXN3-HiBiT cell line that result in downregulation of the ATXN3-HiBiT protein (through modulation of ATXN3-HiBiT pre-mRNA splicing) can be followed by monitoring the luminescence signal of the HiBiT tag using the Nano Glo HiBiT Lytic Detection System (Promega, #N3050). Kelly-ATXN3-HiBiT cells were maintained in RPMI 1640 w/Glutamax (Gibco, #61870010), 10% FBS (Sigma Aldrich, #F8687), 1% Penicillin/Streptomycin (Gibco, #15140-122) at 37° C., 5% CO2. To assess HiBiT-luminescence signal upon compound treatment, 2000 Kelly-ATXN3-HiBiT cells were seeded per well in 384 plate format. Compounds were added 24 h after seeding. ATXN3-HiBiT-luminescence signal was read out 48 h after addition of the compound using the Nano Glo HiBiT Lytic Detection System (Promega, #N3050) according to the manufacturer's instructions. To control for cell viability, an identically prepared sister plate was read out with the CellTiter-Glo® 2.0 Assay (Promega, #G9243) according to the manufacturer's instructions. Fold changes of ATXN3-HiBiT-luminescence and of CellTiter-Glo viability signals were calculated relative to a DMSO control condition.

Another assay deals with total ATXN3 protein. Put plainly: ATXN3 total protein assay (Mesoscale Discovery). In kind it is cell-based, Human. The note with it: SK-N-MC cells, 48 hours incubation, MSD assay; read-out: ATXN3 Potency - Protein IC50. Here is the method:
Human neuroblastoma SK-N-MC cells were seeded at 10,000 cells/well in 384 well plates one day prior to compound treatment. The concentrations of compounds were tested at appropriate doses ranging from 30 µM to 0.6 nM. After incubation for 48 hours, the cells were lysed with 25.L of lysis buffer containing protease inhibitors, and total ATXN3 protein levels were assessed by Mesoscale Discovery (MSD) assay developed with one pair of anti-ATXN3 antibodies. The capture and detect antibodies were raised in mouse and rabbit respectively. Anti-rabbit MSD-ST antibody was used for secondary antibody.
ATXN3 recombinant protein was used for standards. The readouts were captured with 35 μL of MSD read buffer and multi-array 384-well high binding plates.

Assay [1] concerns ATXN3 transcripts containing exon 4 (E4E5). Nature of the assay: ATXN3 quantitative splicing assay (qPCR, E4E5 primers/probe detecting transcripts containing exon 4). The format is cell-based. The note with it: Homo sapiens, SK-N-MC cells, 24 h treatment. The protocol: Human neuroblastoma SK-N-MC cells were plated in 384-well plates at 20,000 cells/well. Twenty-four hours after plating, cells were treated with compounds for 24 h at appropriate concentrations ranging from 30.M to 0.6 nM (0.300 DMS0). Treated cells were lysed in 15.L of lysis buffer, and cDNA was synthesized using the Fast Advanced Cells-to-Ct kit. Two L of each cDNA was used in qPCR reactions to confirm the exon 4 skipped transcripts of ATXN3. A second set of primers/probe E4E5 was used to detect the transcripts containing exon 4. The third set of primers/probe E8E9 was used to detect total gene level of ATXN3. The qPCR reactions were prepared in 384-well plates in 10 L volume, using TaqMan™ Fast Advanced Master Mix with primers and probes shown in the table below. Reactions were run in a Quant Studio 6 qPCR instrument with default settings.
The primers and probes are listed below in Table 4.
A general note: In qPCR the cycle at which signal appears reflects the starting amount.

As for `C#Cc1c(C[C@@H](N)[C@H](C)F)oc2c(NCc3cccs3)nc(Cl)nc12` [Compound 13, 6-[(2R,3S)-2-amino-3-fluorobutyl]-2-chloro-7-ethynyl-N-(thiophen-2-ylmethyl)furo[3,2-d]pyrimidin-4-amine], the concentration giving a half-maximal response (EC50) (commonly the midpoint of the concentration-response curve) in the assay with ATXN3-HiBiT protein was 0.01 to 100 nM. The IC50 (in the assay on total ATXN3 protein; in assay [1]) was 0.01 to 100 nM throughout.

`C[C@H](N)Cc1oc2c(NCc3cccs3)nc(Cl)nc2c1Br` [Compound 32, 6-[(2S)-2-aminopropyl]-7-bromo-2-chloro-N-(thiophen-2-ylmethyl)furo[3,2-d]pyrimidin-4-amine] registered an EC50 in the assay with ATXN3-HiBiT protein of 101 to 500 nM. The 50% inhibitory concentration (IC50) (in the assay on total ATXN3 protein; in assay [1]) was 101 to 500 nM each time.

For the compound `Clc1nc(NCc2ccncc2)c2occc2n1` [Compound 3, [(4-pyridyl)methyl](5-chloro-1-oxa-4,6-diaza-7-indenyl)-amine], the IC50 (with total ATXN3 protein; in assay [1]) was 10000 to 40000 nM throughout.

In turn, `C[C@H](F)[C@H](N)Cc1oc2c(NCc3nccs3)nc(Cl)nc2c1Br` [Compound 18, 2-[(2R,3S)-2-amino-3-fluoro-butyl]-3-bromo-5-chloro-7-{[(1,3-thiazol-2-yl)methyl]-amino}-1-oxa-4,6-diaza-indene] came in with an EC50 in the assay with ATXN3-HiBiT protein of 101 to 500 nM. The IC50 (in the assay on total ATXN3 protein; in assay [1]) was 101 to 500 nM throughout.

In turn, `C[C@H](F)[C@H](N)Cc1oc2c(NCc3cccs3)nc(Cl)nc2c1Br` [Compound 15, 2-[(2R,3S)-2-amino-3-fluoro-butyl]-3-bromo-5-chloro-7-thenylamino-1-oxa-4,6-diazaindene] gave a 50% effective concentration (EC50) with ATXN3-HiBiT protein of 101 to 500 nM. The IC50 (commonly the midpoint of a concentration-inhibition curve) in the assay on total ATXN3 protein is 101 to 500 nM; in assay [1] it was 0.01 to 100 nM.

Consider `Cc1coc2c(NCc3nccs3)nc(Cl)nc12` [Compound 9, [(1,3-thiazol-2-yl)methyl](5-chloro-3-methyl-1-oxa-4,6-diaza-7-indenyl)amine], for which the IC50 (with total ATXN3 protein; in assay [1]) was 10000 to 40000 nM in each case.

Take `C#Cc1nc(NCc2cccs2)c2oc(C[C@@H](N)[C@H](C)F)c(Br)c2n1` [Compound 27, 6-[(2R,3S)-2-amino-3-fluorobutyl]-7-bromo-2-ethynyl-N-(thiophen-2-ylmethyl)furo[3,2-d]pyrimidin-4-amine]: the concentration giving a half-maximal response (EC50) in the assay with ATXN3-HiBiT protein fell in the range of 101 to 500 nM. Also, the IC50 (with total ATXN3 protein; in assay [1]) was 101 to 500 nM throughout.

The compound `C[C@H](F)[C@H](N)Cc1oc2c(NCc3cccs3)nc(Cl)nc2c1Cl` [Compound 17, 2-[(2R,3S)-2-amino-3-fluoro-butyl]-3,5-dichloro-7-thenyl-amino-1-oxa-4,6-diazaindene] registered an EC50 in the assay with ATXN3-HiBiT protein of 101 to 500 nM. Also, the IC50 (with total ATXN3 protein; in assay [1]) was 101 to 500 nM each time.

Turning to `C/C=C/c1cc2nc(Cl)nc(NCc3ccccc3)c2o1` [Compound 5, N-benzyl-2-chloro-6-(prop-1-en-1-yl)furo[3,2-d]pyrimidin-4-amine], the half-inhibitory concentration (IC50) (in the assay on total ATXN3 protein; in assay [1]) was 10000 to 40000 nM throughout.

For the compound `C#Cc1nc(NCc2cccs2)c2oc(C[C@@H](N)[C@H](C)F)c(C#C)c2n1` [Compound 26], in the assay with ATXN3-HiBiT protein, the EC50 is 101 to 500 nM. For the same compound, the half-inhibitory concentration (IC50) (in the assay on total ATXN3 protein; in assay [1]) was 101 to 500 nM each time.

`Cc1coc2c(NCc3ccco3)nc(Cl)nc12` [Compound 10, (furfuryl)(5-chloro-3-methyl-1-oxa-4,6-diaza-7-indenyl)-amine]: the half-maximal inhibitory concentration (IC50) (with total ATXN3 protein; in assay [1]) was 501 to 5000 nM each time.

Compound `C#Cc1c(C[C@@H](N)[C@H](C)F)oc2c(NCc3ccco3)nc(Cl)nc12` [Compound 12, 2-[(2R,3S)-2-amino-3-fluoro-butyl]-5-chloro-3-ethynyl-7-(furfurylamino)-1-oxa-4,6-diazaindene] displayed an EC50 in the assay with ATXN3-HiBiT protein of 0.01 to 100 nM. The half-inhibitory concentration (IC50) (in the assay on total ATXN3 protein; in assay [1]) was 0.01 to 100 nM in each case.

For `CC(N)Cc1cc2nc(Cl)nc(NCc3ccncc3)c2o1` (centres unmarked) [Compound 1, 6-(2-aminopropyl)-2-chloro-N-(pyridin-4-ylmethyl)furo [3,2-d]pyrimidin-4-amine], the concentration for half-maximal inhibition (IC50) (in the assay with total ATXN3 protein; in assay [1]) was 10000 to 40000 nM each time.

As to `C[C@H](N)Cc1oc2c(NCc3ccco3)nc(Cl)nc2c1Br` [Compound 33, 2-[(S)-2-aminopropyl]-3-bromo-5-chloro-7-(furfur-ylamino)-1-oxa-4,6-diaza-indene], the concentration giving a half-maximal response (EC50) in the assay with ATXN3-HiBiT protein was 0.01 to 100 nM. Further, the IC50 fell in the range of 0.01 to 100 nM in the assay on total ATXN3 protein and 101 to 500 nM in assay [1].

`C[C@H](F)[C@H](N)Cc1oc2c(NCc3ccco3)nc(Cl)nc2c1Br` [Compound 14, 2-[(2R,3S)-2-amino-3-fluoro-butyl]-3-bromo-5-chloro-7-(furfurylamino)-1-oxa-4,6-diazaindene] had a 50% effective concentration (EC50) with ATXN3-HiBiT protein of 0.01 to 100 nM. The IC50 (with total ATXN3 protein; in assay [1]) was 0.01 to 100 nM throughout.

Take `Cc1c(C[C@H](C)N)oc2c(NCc3nccs3)nc(Cl)nc12` [Compound 7]: the 50% inhibitory concentration (IC50) (in the assay on total ATXN3 protein; in assay [1]) was 10000 to 40000 nM each time.

Consider `CC(N)Cc1cc2nc(Cl)nc(NCc3ccccc3)c2o1` (centres unmarked) [Compound 2, 2-(2-aminopropyl)-7-benzyl-amino-5-chloro-1-oxa-4,6-diazaindene], for which the IC50 (with total ATXN3 protein; in assay [1]) was 10000 to 40000 nM in each case.

In the assay on ATXN3-HiBiT protein, `C[C@H](F)[C@H](N)Cc1oc2c(NCc3ccccc3)nc(Cl)nc2c1Br` [Compound 19, 2-[(2R,3S)-2-amino-3-fluoro-butyl]-7-benzylamino-3-bromo-5-chloro-1-oxa-4,6-diazaindene] gave a 50% effective concentration (EC50) of 501 to 5000 nM. The half-maximal inhibitory concentration (IC50) (in the assay with total ATXN3 protein; in assay [1]) was 101 to 500 nM in each case.

In the assay with ATXN3-HiBiT protein, `C#Cc1nc(NCc2ccco2)c2oc(C[C@@H](N)[C@H](C)F)c(Br)c2n1` [Compound 28, 2-[(2R,3S)-2-amino-3-fluoro-butyl]-3-bromo-5-ethynyl-7-(furfurylamino)-1-oxa-4,6-diazaindene] showed an EC50 of 101 to 500 nM. The concentration for half-maximal inhibition (IC50) (in the assay on total ATXN3 protein; in assay [1]) was 101 to 500 nM in each case.

Turning to `C[C@H](F)[C@H](N)Cc1oc2c(NCc3cccs3)nc(Cl)nc2c1-c1ncco1` [Compound 34, 6-[(2R,3S)-2-amino-3-fluorobutyl]-2-chloro-7-(1,3-oxazol-2-yl)-N-(thiophen-2-ylmethyl)furo[3,2-d]pyrimidin-4-amine], the concentration for half-maximal inhibition (IC50) in assay [1] lay within 501 to 5000 nM.

Consider `C[C@H](F)[C@H](N)Cc1oc2c(NCc3ccncc3)nc(Cl)nc2c1Br` [Compound 20, 2-[(2R,3S)-2-amino-3-fluoro-butyl]-3-bromo-5-chloro-7-{[(4-pyridyl)methyl]amino}-1-oxa-4,6-diazaindene], for which, in the assay with ATXN3-HiBiT protein, the EC50 was in the range of 0.01 to 100 nM. The IC50 is 101 to 500 nM with total ATXN3 protein and 0.01 to 100 nM in assay [1].

Turning to `Cc1c(C[C@H](C)N)oc2c(NCc3cccs3)nc(Cl)nc12` [Compound 11, 2-[(S)-2-aminopropyl]-5-chloro-3-methyl-7-thenyl-amino-1-oxa-4,6-diaza-indene], the IC50 (in the assay with total ATXN3 protein; in assay [1]) was 501 to 5000 nM throughout.

Regarding `C/C=C/c1cc2nc(Cl)nc(NCc3ccncc3)c2o1` [Compound 6], the IC50 (in the assay with total ATXN3 protein; in assay [1]) was 10000 to 40000 nM each time.

On to `Clc1nc(NCc2ccccc2)c2occc2n1` [Compound 4, N-benzyl-2-chlorofuro[3,2-d]pyrimidin-4-amine], for which the IC50 (with total ATXN3 protein; in assay [1]) was 10000 to 40000 nM each time.

For `Cc1c(C[C@H](C)N)oc2c(NCc3ccco3)nc(Cl)nc12` [Compound 8, 2-[(S)-2-aminopropyl]-5-chloro-7-(furfurylamino)-3-methyl-1-oxa-4,6-diaza-indene], the half-maximal inhibitory concentration (IC50) (in the assay with total ATXN3 protein; in assay [1]) was 501 to 5000 nM throughout.

For `C[C@H](F)[C@H](N)Cc1oc2c(NCc3ccco3)nc(Cl)nc2c1Cl` [Compound 16, 2-[(2R,3S)-2-amino-3-fluoro-butyl]-3,5-dichloro-7-(furfur-ylamino)-1-oxa-4,6-diaza-indene], the concentration for a half-maximal effect (EC50) in the assay with ATXN3-HiBiT protein lay in the range of 0.01 to 100 nM. Moreover, the concentration for half-maximal inhibition (IC50) with total ATXN3 protein lay within 101 to 500 nM; in assay [1] it was 0.01 to 100 nM.
